Experimental data: patent US4698327A, “Novel glycopeptide derivatives” (priority 1986, dated 1987)
≈ marks a conversion by molar mass, not a printed value.

Experiments:
[1] = tested on: Haemophilus influenzae C.L.; assay: MIC, standard agar-dilution assay; format: cell-based
[2] = tested on: Staphylococcus epidermidis EPI1; format: cell-based; details: agar dilution
[3] = tested on: Streptococcus sp. group D 2041; assay: MIC, standard agar-dilution assay; format: cell-based
Staphylococcus aureus = Staphylococcus aureus infection in mice; two doses, administered subcutaneously
[4] = tested on: Staphylococcus aureus V41; assay: MIC, standard agar-dilution assay; format: cell-based
Escherichia coli EC14 = assay: MIC, standard agar-dilution assay; format: cell-based
[5] = tested on: Staphylococcus aureus S13E; format: cell-based; details: agar dilution
[6] = tested on: Klebsiella pneumoniae X68; assay: MIC, standard agar-dilution assay; format: cell-based
[7] = tested on: Klebsiella pneumoniae X26; assay: MIC, standard agar-dilution assay; format: cell-based
[8] = tested on: Staphylococcus aureus NRRL B313; details: agar dilution
Escherichia coli N10 = assay: MIC, standard agar-dilution assay; format: cell-based
[9] = tested on: Streptococcus pyogenes C203; assay: MIC, standard agar-dilution assay; format: cell-based
[10] = tested on: Klebsiella pneumoniae KAE; assay: MIC, standard agar-dilution assay; format: cell-based
[11] = tested on: Staphylococcus aureus X400; assay: MIC, standard agar-dilution assay; format: cell-based
Streptococcus pneumoniae = Streptococcus pneumoniae infection in mice; two doses, administered subcutaneously
Escherichia coli TEM = assay: MIC, standard agar-dilution assay; format: cell-based
[12] = tested on: Streptococcus pneumoniae Park 1; format: cell-based; details: agar dilution
Streptococcus pyogenes = Streptococcus pyogenes infection in mice; two doses, administered subcutaneously
[13] = tested on: Streptococcus faecium ATCC 9790; assay: MIC, standard agar-dilution assay; format: cell-based
[14] = tested on: Haemophilus influenzae 76; assay: MIC, standard agar-dilution assay; format: cell-based
[15] = tested on: Staphylococcus epidermidis 222; assay: MIC, standard agar-dilution assay; format: cell-based

Row | Structure (SMILES) | MIC [1] | MIC [2] | MIC [3] | ED50 (Staphylococcus aureus) | MIC [4] | MIC (Escherichia coli EC14) | MIC [5] | MIC [6] | MIC [7] | MIC [8] | MIC (Escherichia coli N10) | MIC [9] | MIC [10] | MIC [11] | ED50 (Streptococcus pneumoniae) | MIC (Escherichia coli TEM) | MIC [12] | MIC [13] | MIC [14] | MIC [15] | other results
1 | CCCCCCCCCCCCNC1(C)CC(OC2C(Oc3c4cc5cc3Oc3ccc(cc3Cl)C(O)C3NC(=O)C(NC(=O)C5NC(=O)C(CC(N)=O)NC(=O)C(NC(=O)C(CC(C)C)NC)C(O)c5ccc(c(Cl)c5)O4)c4ccc(O)c(c4)-c4c(O)cc(O)cc4C(C(=O)O)NC3=O)OC(CO)C(O)C2O)OC(C)C1O (stereo not drawn) [Compound 1, N^van --(n-dodecyl)vancomycin] | > 128 µg/mL | 0.5 µg/mL (≈ 0.309 µM) | 0.125 µg/mL (≈ 0.0773 µM) | > 5 mg/kg/2 | 0.25 µg/mL (≈ 0.155 µM) | > 128 µg/mL | 0.25 µg/mL (≈ 0.155 µM) | > 128 µg/mL | > 128 µg/mL | 0.25 µg/mL (≈ 0.155 µM) | > 128 µg/mL | 0.125 µg/mL (≈ 0.0773 µM) | > 128 µg/mL | 0.25 µg/mL (≈ 0.155 µM) | 0.42 mg/kg/2 | > 128 µg/mL | 0.25 µg/mL (≈ 0.155 µM) | 0.25 µg/mL (≈ 0.155 µM) | > 128 µg/mL | – | ED50 (Streptococcus pyogenes): 0.31 mg/kg/2
2 | CCCCCCCCCCNC1(C)CC(OC2C(Oc3c4cc5cc3Oc3ccc(cc3Cl)C(O)C3NC(=O)C(NC(=O)C5NC(=O)C(CC(N)=O)NC(=O)C(NC(=O)C(CC(C)C)NC)C(O)c5ccc(c(Cl)c5)O4)c4ccc(O)c(c4)-c4c(O)cc(O)cc4C(C(=O)O)NC3=O)OC(CO)C(O)C2O)OC(C)C1O (stereo not drawn) [Compound 2, N^van -(n-decyl)vancomycin] | 128 µg/mL (≈ 80.5 µM) | 0.25 µg/mL (≈ 0.157 µM) | 0.25 µg/mL (≈ 0.157 µM) | 1.8 mg/kg/2 | 0.25 µg/mL (≈ 0.157 µM) | > 128 µg/mL | 0.25 µg/mL (≈ 0.157 µM) | > 128 µg/mL | > 128 µg/mL | – | > 128 µg/mL | 0.06 µg/mL (≈ 0.0377 µM) | > 128 µg/mL | 0.25 µg/mL (≈ 0.157 µM) | 0.51 mg/kg/2 | > 128 µg/mL | 0.125 µg/mL (≈ 0.0786 µM) | 0.25 µg/mL (≈ 0.157 µM) | 128 µg/mL (≈ 80.5 µM) | 0.25 µg/mL (≈ 0.157 µM) | ED50 (Streptococcus pyogenes): 1.6 mg/kg/2
3 | CCCCCCCCCCN(C)C(CC(C)C)C(=O)NC1C(=O)NC(CC(N)=O)C(=O)NC2C(=O)NC3C(=O)NC(C(=O)NC(C(=O)O)c4cc(O)cc(O)c4-c4cc3ccc4O)C(O)c3ccc(c(Cl)c3)Oc3cc2cc(c3OC2OC(CO)C(O)C(O)C2OC2CC(C)(N)C(O)C(C)O2)Oc2ccc(cc2Cl)C1O (stereo not drawn) [Compound 3, N^leu --(n-decyl)vancomycin] | 128 µg/mL (≈ 80.5 µM) | 2 µg/mL (≈ 1.26 µM) | 1 µg/mL (≈ 0.629 µM) | > 5 mg/kg/2 | 0.5 µg/mL (≈ 0.315 µM) | > 128 µg/mL | 0.5 µg/mL (≈ 0.315 µM) | > 128 µg/mL | > 128 µg/mL | 0.5 µg/mL (≈ 0.315 µM) | > 128 µg/mL | 0.5 µg/mL (≈ 0.315 µM) | > 128 µg/mL | 0.5 µg/mL (≈ 0.315 µM) | 3.6 mg/kg/2 | > 128 µg/mL | 0.5 µg/mL (≈ 0.315 µM) | 0.5 µg/mL (≈ 0.315 µM) | > 128 µg/mL | 1 µg/mL (≈ 0.629 µM) | ED50 (Streptococcus pyogenes): 4.6 mg/kg/2
4 | CCCCCCCCNC1(C)CC(OC2C(Oc3c4cc5cc3Oc3ccc(cc3Cl)C(O)C3NC(=O)C(NC(=O)C5NC(=O)C(CC(N)=O)NC(=O)C(NC(=O)C(CC(C)C)NC)C(O)c5ccc(c(Cl)c5)O4)c4ccc(O)c(c4)-c4c(O)cc(O)cc4C(C(=O)O)NC3=O)OC(CO)C(O)C2O)OC(C)C1O (stereo not drawn) [Compound 7, N^van --(n-octyl)vancomycin] | 32 µg/mL (≈ 20.5 µM) | 1 µg/mL (≈ 0.64 µM) | 0.5 µg/mL (≈ 0.32 µM) | 3.4 mg/kg/2 | 0.25 µg/mL (≈ 0.16 µM) | > 128 µg/mL | 0.25 µg/mL (≈ 0.16 µM) | > 128 µg/mL | > 128 µg/mL | 0.25 µg/mL (≈ 0.16 µM) | > 128 µg/mL | 0.125 µg/mL (≈ 0.0801 µM) | > 128 µg/mL | 0.25 µg/mL (≈ 0.16 µM) | 0.44 mg/kg/2 | > 128 µg/mL | – | 0.25 µg/mL (≈ 0.16 µM) | 32 µg/mL (≈ 20.5 µM) | 0.5 µg/mL (≈ 0.32 µM) | ED50 (Streptococcus pyogenes): 0.98 mg/kg/2
5 | CCCNC1(C)CC(OC2C(Oc3c4cc5cc3Oc3ccc(cc3Cl)C(O)C3NC(=O)C(NC(=O)C5NC(=O)C(CC(N)=O)NC(=O)C(NC(=O)C(CC(C)C)NC)C(O)c5ccc(c(Cl)c5)O4)c4ccc(O)c(c4)-c4c(O)cc(O)cc4C(C(=O)O)NC3=O)OC(CO)C(O)C2O)OC(C)C1O (stereo not drawn) [Compound 20, N^van --(n-propyl)vancomycin] | 128 µg/mL (≈ 85.8 µM) | 4 µg/mL (≈ 2.68 µM) | 1 µg/mL (≈ 0.671 µM) | – | 1 µg/mL (≈ 0.671 µM) | > 128 µg/mL | 1 µg/mL (≈ 0.671 µM) | > 128 µg/mL | > 128 µg/mL | 1 µg/mL (≈ 0.671 µM) | > 128 µg/mL | 0.5 µg/mL (≈ 0.335 µM) | > 128 µg/mL | 1 µg/mL (≈ 0.671 µM) | – | > 128 µg/mL | 0.5 µg/mL (≈ 0.335 µM) | 1 µg/mL (≈ 0.671 µM) | 128 µg/mL (≈ 85.8 µM) | 1 µg/mL (≈ 0.671 µM) | –
6 | CCCNC1(C)CC(OC2C(Oc3c4cc5cc3Oc3ccc(cc3Cl)C(O)C(NC(=O)C(CC(C)C)N(C)CCC)C(=O)NC(CC(N)=O)C(=O)NC5C(=O)NC3C(=O)NC(C(=O)NC(C(=O)O)c5cc(O)cc(O)c5-c5cc3ccc5O)C(O)c3ccc(c(Cl)c3)O4)OC(CO)C(O)C2O)OC(C)C1O (stereo not drawn) [Compound 22, N^van, N^leu --di(n-propyl)vancomycin] | > 128 µg/mL | 4 µg/mL (≈ 2.61 µM) | 8 µg/mL (≈ 5.22 µM) | – | 2 µg/mL (≈ 1.3 µM) | > 128 µg/mL | 2 µg/mL (≈ 1.3 µM) | > 128 µg/mL | > 128 µg/mL | 2 µg/mL (≈ 1.3 µM) | > 128 µg/mL | 2 µg/mL (≈ 1.3 µM) | > 128 µg/mL | 2 µg/mL (≈ 1.3 µM) | – | > 128 µg/mL | 1 µg/mL (≈ 0.652 µM) | 2 µg/mL (≈ 1.3 µM) | 128 µg/mL (≈ 83.5 µM) | 4 µg/mL (≈ 2.61 µM) | –
7 | CCNC1(C)CC(OC2C(Oc3c4cc5cc3Oc3ccc(cc3Cl)C(O)C(NC(=O)C(CC(C)C)N(C)CC)C(=O)NC(CC(N)=O)C(=O)NC5C(=O)NC3C(=O)NC(C(=O)NC(C(=O)O)c5cc(O)cc(O)c5-c5cc3ccc5O)C(O)c3ccc(c(Cl)c3)O4)OC(CO)C(O)C2O)OC(C)C1O (stereo not drawn) [Compound 24, N^van, N^leu --diethylvancomycin] | < 128 µg/mL | 2 µg/mL (≈ 1.33 µM) | 4 µg/mL (≈ 2.66 µM) | – | 1 µg/mL (≈ 0.664 µM) | > 128 µg/mL | 1 µg/mL (≈ 0.664 µM) | > 128 µg/mL | > 128 µg/mL | 1 µg/mL (≈ 0.664 µM) | > 128 µg/mL | 1 µg/mL (≈ 0.664 µM) | > 128 µg/mL | 2 µg/mL (≈ 1.33 µM) | – | > 128 µg/mL | 1 µg/mL (≈ 0.664 µM) | 2 µg/mL (≈ 1.33 µM) | 128 µg/mL (≈ 85 µM) | 2 µg/mL (≈ 1.33 µM) | –
8 | CCCCCCCCCCNC1(C)CC(OC2C(Oc3c4cc5cc3Oc3ccc(cc3Cl)C(O)C3NC(=O)C(NC(=O)C5NC(=O)C(CC(N)=O)NC(=O)C(NC(=O)C(N)CC(C)C)C(O)c5ccc(c(Cl)c5)O4)c4ccc(O)c(c4)-c4c(O)cc(O)cc4C(C(=O)O)NC3=O)OC(CO)C(O)C2O)OC(C)C1O (stereo not drawn) [Compound 26, N^van --(n-decyl)-A51568A] | 128 µg/mL (≈ 81.2 µM) | 0.5 µg/mL (≈ 0.317 µM) | 0.5 µg/mL (≈ 0.317 µM) | – | 0.25 µg/mL (≈ 0.159 µM) | > 128 µg/mL | 0.25 µg/mL (≈ 0.159 µM) | > 128 µg/mL | > 128 µg/mL | 0.25 µg/mL (≈ 0.159 µM) | > 128 µg/mL | 0.25 µg/mL (≈ 0.159 µM) | > 128 µg/mL | 0.25 µg/mL (≈ 0.159 µM) | – | > 128 µg/mL | 0.25 µg/mL (≈ 0.159 µM) | 0.5 µg/mL (≈ 0.317 µM) | 128 µg/mL (≈ 81.2 µM) | 0.25 µg/mL (≈ 0.159 µM) | –
9 | CCCCCCCCCCNC1(C)CC(OC2C(Oc3c4cc5cc3Oc3ccc(cc3Cl)C(O)C(NC(=O)C(CC(C)C)[N+](C)(C)C)C(=O)NC(CC(N)=O)C(=O)NC5C(=O)NC3C(=O)NC(C(=O)NC(C(=O)[O-])c5cc(O)cc(O)c5-c5cc3ccc5O)C(O)c3ccc(c(Cl)c3)O4)OC(CO)C(O)C2O)OC(C)C1O (stereo not drawn) [Compound 124, N^van --(n-decyl)-M43A] | > 64 µg/mL | 1 µg/mL (≈ 0.618 µM) | 0.5 µg/mL (≈ 0.309 µM) | – | 0.5 µg/mL (≈ 0.309 µM) | 64 µg/mL (≈ 39.6 µM) | 0.5 µg/mL (≈ 0.309 µM) | > 64 µg/mL | > 64 µg/mL | 0.5 µg/mL (≈ 0.309 µM) | > 64 µg/mL | 0.25 µg/mL (≈ 0.155 µM) | > 64 µg/mL | 0.5 µg/mL (≈ 0.309 µM) | – | > 64 µg/mL | 0.5 µg/mL (≈ 0.309 µM) | 0.5 µg/mL (≈ 0.309 µM) | > 64 µg/mL | 0.5 µg/mL (≈ 0.309 µM) | –
